Experimental data from ChEMBL document CHEMBL1159262, “Bioactive diterpenoids from Octocorallia, 2. Deoxyxeniolide B, a novel ichthyotoxic diterpenoid from the soft coral Xenia elongata” (J Nat Prod, 1995).

System: Oryzias latipes
Experiment: Ichthyotoxicity against Oryzias latipes after 1 hr
Type: organism-based
Details: in vivo

| Structure (SMILES) | Activity | LC100 [ppm] |
| --- | --- | --- |
| C=C1CC[C@@H]2O[C@@]2(C)CC[C@@H]2/C(=C\C=C\C(C)(C)O)COC(=O)[C@@H]12 | Non-toxic | – |
| C=C1CC[C@@H]2O[C@@]2(C)CC[C@@H]2/C(=C\CC=C(C)C)COC(=O)[C@@H]12 | Non-toxic | – |
| C=C1CC/C=C(\C)CC[C@@H]2/C(=C\CC=C(C)C)COC(=O)[C@@H]12 [DEOXYXENIOLIDE B] | – | 15 |
